Assay results from US9045505B2, “Nitric oxide donors” (University of Otago, priority 2006, dated 2015).

What was measured:
liver mitochondria [1] = assay: S-nitrosation of mitochondrial protein thiols (chemiluminescence SNO assay); format: biochemical, rat; conditions: 500 μM
Procedure: FIG. 11 is a series of graphs showing S-nitrosation of mitochondrial thiols by MitoSNAP. (a) Time course of S-nitrosation of mitochondrial proteins by MitoSNAP. Liver mitochondria (1 mg protein) were incubated in 1 ml KCl buffer supplemented with rotenone and succinate in the presence of 5 μM MitoSNAP. At various times mitochondria were treated with 10 mM N-ethylmaleimide (NEM), isolated by centrifugation and the S-nitrosothiol content assessed. Data are of a typical experiment showing means±range of duplicate samples for each time point, each measured in duplicate. The experiment was repeated twice. (b) S-nitrosation of mitochondrial proteins by different concentrations of MitoSNAP and SNAP. Aliquots of liver mitochondria were incubated with the indicated concentrations of MitoSNAP or SNAP for […] in the presence or absence of 500 nM FCCP and then assessed for S-nitrosothiol content as in (a). For the +NEM sample, 10 mM NEM was added to the mitochondria and 1 min later 5 μM MitoSNAP was added and incubated for a further 2.5 min. Data are of a typical experiment showing means±range of duplicate samples for each time point, each measured in duplicate. The experiment was repeated twice. (c) S-nitrosation of cellular protein thiols by MitoSNAP. C2C12 cells were preincubated for 5 min in 2 ml cell culture medium containing either 20 μM FCCP or DMSO carrier, then 5 μM MitoSNAP or SNAP was added. After further incubation for 5 min at 37° C. in the dark, the medium was removed and the content of S-nitrosated proteins was measured. Data are means±range of the duplicate determinations. […] (d) S-nitrosation of a mitochondria-enriched cell subfraction. C2C12 cells were preincubated for 5 min in cell culture medium containing either 20 μM FCCP or dimethylsulfoxide (DMSO) carrier, then 5 μM MitoSNAP was added. After 5 min at 37° C. in the dark, the medium was removed and the cells were processed to isolate a mitochondria-enriched fraction and S-nitrosated protein was then determined Data are mean±sem of triplicate determinations (+MitoSNO1), or mean±range of duplicate determinations (+FCCP). (e & f) Visualisation of S-nitrosated mitochondrial proteins by copper/ascorbate-dependent labelling of thiols with a Cy3 fluorophore. Liver (e) or heart (f) mitochondria (1 mg protein) were incubated in 1 ml KCl buffer supplemented with rotenone and succinate in the presence of no additions, 10 μM MitoSNAP or 500 μM diamide for 5 min. S-nitrosated thiols were then selectively tagged with Cy3 maleimide and protein (10 μg) was then separated on a 12.5% SDS PAGE gel which was stained with coomassie blue and scanned for Cy3 fluorescence. The Cy3 fluorescence (SNO) and coomassie staining (coomassie) of each gel is shown.
FIG. 13 is a trace and graph showing limited S-nitrosation of mitochondria by DetaNONOate. […] Where indicated 500 μM DetaNONOate was added and the concentration of NO^• was measured over time, before 5 μM OxyHb was added. […] Then protein pellets were resuspended and processed for analysis of protein S-nitrosothiols. Control incubations in the presence of 10 mM NEM were also carried out. Data are means±range of two independent experiments each being the average of four mitochondrial incubations.
Nitrite, nitric oxide and S-nitrosothiol measurements. Nitrite was analyzed by the Griess assay (Molecular Probes). Nitric oxide was measured using an NO^• electrode (World Precision Instruments Ltd, UK) connected to an Apollo 4000 Free Radical Analyser. The electrode was inserted into a stirred, sealed 3 ml chamber with a Clark type O2 electrode (Rank Brothers, UK) built into its base and was thermostatted at 37° C. The NO^• electrode was calibrated by adding SNAP to argon-purged, saturated CuCl. OxyHb was prepared by reduction of bovine methemoglobin with sodium dithionite.

rat liver mitochondria = assay: Membrane potential-dependent uptake into isolated mitochondria (TPP-selective electrode); format: biochemical
Procedure: FIG. 8 is a trace showing the uptake of MitoSNAP and MitoNAP by energized mitochondria measured using an ion-selective electrode. For (a) and (b) mitochondria (2 mg protein/ml) were incubated in KCl buffer supplemented with rotenone in a stirred 3 ml chamber thermostatted at 37° C. and shielded from ambient light. An electrode selective for the TPP cation was inserted and calibrated by five sequential 1 μM additions of MitoNAP (a) or MitoSNAP (b). Succinate (10 mM) was then added to energize the mitochondria, followed by the uncoupler FCCP (0.5 μM). Rapid uptake of MitoNAP by energized mitochondria was observed and this was reversed by abolishing the membrane potential with the uncoupler FCCP (a). Energised mitochondria also rapidly accumulated MitoSNAP (b). However, in contrast to MitoNAP, uncoupling apparently led to only partial release of the accumulated MitoSNAP (b). This apparent incomplete release of MitoSNAP on uncoupling is presumably because MitoSNAP is converted to MitoNAP within mitochondria and this generates a different response from the electrode.
(§1) Mitochondrial incubations were usually in KCl buffer (120 mM KCl, 10 mM HEPES, 1 mM EGTA, 100 μM N,N-bis(2-bis[carboxymethyl]aminoethyl) glycine (DTPA) and 10 μM neocuproine, pH 7.2) with 10 mM succinate and 4 μg/ml rotenone in the dark at 37° C., unless stated otherwise. An electrode selective for the TPP moiety of MitoSNAP and MitoNAP was made and used as described previously (Asin-Cayuela, J., Manas, A. R., James, A. M., Smith, R. A. & Murphy, M. P. Fine-tuning the hydrophobicity of a mitochondria-targeted antioxidant. FEBS Letts. 571, 9-16 (2004)). Respiration rates were measured in a Clark type O2 electrode (Rank Brothers, UK). To measure GSH and GSSG, mitochondria (1 mg protein/ml) were incubated with 0-10 μM MitoSNO1 or MitoNAP for 10 min, pelleted by centrifugation and the GSH and GSSG contents assessed by the recycling assay (Scarlett, J. L., Packer, M. A., Porteous, C. M. & Murphy, M. P. Alterations to glutathione and nicotinamide nucleotides during the mitochondrial permeability transition induced by peroxynitrite. Biochem. Pharmacol. 52, 1047-1055 (1996)). The measurement of exposed mitochondrial protein thiols is described below.
Rat liver mitochondria (1 mg protein/ml) in KCl buffer was incubated at 37° C. with 5 μM MitoSNO. 1 μM additions of MitoSNO were made sequentially before addition of 10 mM succinate. 200 nM FCCP was then added to uncouple the mitochondria. The concentrations of O2 and MitoSNO in solution were measured simultaneously using a Clark-type O2 electrode in combination with an ion-selective electrode for triphenylphosphonium cation (TPP^+). […] This can be seen in FIG. 3.
When succinate was added, the mitochondria started respiring and set up a Δψ, which caused a decrease in the MitoSNO concentration, as detected by the ion-selective electrode (FIG. 3). When the mitochondria were uncoupled by FCCP, a concomitant increase in the concentration of MitoSNO, or its derivatives, in the medium was detected by the ion-selective electrode. The amount of MitoSNO taken up into the mitochondria from the trace in FIG. 3 corresponds to ˜2.5 μM of the initial external concentration of 5 μM. Therefore 7.5 nmol MitoSNO have been taken up into 3 mg protein, and as the mitochondrial volume is ˜0.5 μl/mg protein (Brown, G. C. and Brand, M. D. Biochem J., 1985, 225, 399-405), the concentration of MitoSNO within mitochondria is ˜5 mM. This represents a 2000 fold concentration relative to the 2.5 μM present in the external medium, and is consistent with a Nernstian uptake of MitoSNO.

liver mitochondria [2] = assay: Exposed protein thiols, glutathionylation and GSH/GSSG in liver mitochondria; format: biochemical, rat; conditions: mitochondria; MitoSNAP 5 μM
Procedure: as §1
Small molecules were removed by centrifugation through MicroBioSpin Columns (cut off=6 kDa), the eluate was clarified by centrifugation (2 min at 10,000×g) and protein thiols measured in triplicate by mixing 10 μl sample or GSH standard with 160 μl of 200 μM dithionitrobenzoic acid (DTNB) in 80 mM NaPi, 1 mM EDTA, pH 8 in a 96 well plate and absorbance at 412 nm was measured after 30 min at room temperature and the thiol content determined from the GSH standard curve. The protein concentration was measured in parallel by the bicinchonininc assay using BSA as a standard.
The interaction of MitoSNAP with mitochondrial thiol proteins is likely to initiate a dynamic process that may lead to other protein thiol modifications, such as disulfide formation, glutathionylation, sulfenylation or sulfenylamide formation, in addition to persistent S-nitrosation. To assess these, the content of reactive, solvent-exposed thiols on native liver mitochondrial proteins was measured. […] This is consistent with the finding that the maximum extent of mitochondrial protein S-nitrosation by 5 μM MitoSNAP (˜500 pmol SNO/mg protein; FIG. 11) was only ˜1% of the total number of protein thiols available. A small amount of MitoSNAP binding to mitochondrial thiol proteins through the formation of mixed disulfides was detectable by immunoblotting.

[3] = test system: liver or heart mitochondria; assay: Visualisation of S-nitrosated mitochondrial proteins by Cy3 maleimide labelling; format: biochemical, rat; conditions: 10 μM MitoSNAP or 500 μM diamide, 5 min
Procedure: FIG. 11 is a series of graphs showing S-nitrosation of mitochondrial thiols by MitoSNAP. (a) Time course of S-nitrosation of mitochondrial proteins by MitoSNAP. Liver mitochondria (1 mg protein) were incubated in 1 ml KCl buffer supplemented with rotenone and succinate in the presence of 5 μM MitoSNAP. At various times mitochondria were treated with 10 mM N-ethylmaleimide (NEM), isolated by centrifugation and the S-nitrosothiol content assessed. Data are of a typical experiment showing means±range of duplicate samples for each time point, each measured in duplicate. The experiment was repeated twice. (b) S-nitrosation of mitochondrial proteins by different concentrations of MitoSNAP and SNAP. Aliquots of liver mitochondria were incubated with the indicated concentrations of MitoSNAP or SNAP for […] in the presence or absence of 500 nM FCCP and then assessed for S-nitrosothiol content as in (a). […] Data are of a typical experiment showing means±range of duplicate samples for each time point, each measured in duplicate. […] After further incubation for 5 min at 37° C. in the dark, the medium was removed and the content of S-nitrosated proteins was measured. […] S-nitrosated thiols were then selectively tagged with Cy3 maleimide and protein (10 μg) was then separated on a 12.5% SDS PAGE gel which was stained with coomassie blue and scanned for Cy3 fluorescence. […]

HeLa cells = assay: Cell hypoxia experiment, extracellular pO2 by fluorescence quenching oximetry; format: cell-based; conditions: 1% O2, 30 min incubation, compared to untreated controls
Procedure: FIG. 10 is a series of traces and graphs showing the effect of MitoSNAP on respiration in cells. (a-d) Jurkat cells (55×10^6 cells) were incubated in PBS supplemented with 25 mM Hepes pH 7.2 (NaOH), 1 mM sodium pyruvate, 10 μM neocuproine and 100 μM DTPA in the stirred 2.5 ml chamber of an oxygen electrode at 37° C. with 5 μM MitoSNAP (a), MitoNAP (b), SNAP (c) or MitoSNAP and FCCP (500 nM) (d). Where indicated 5 μM OxyHb was added. Traces show typical experiments that were repeated at least three times. Sections of the 02 electrode trace where OxyHb was added for (a) and (b) have been expanded 4-fold in the vertical dimension to facilitate inspection. […] Cellular pO2 values, measured by fluorescence quenching oximetry and expressed as mean±sd, are shown. […]
HeLa cells were seeded and grown to 100% confluence with 15 ml medium/dish on 165 cm^2 dishes. […] Extracellular pO2 measurements were taken by fluorescence quenching oximetry (Oxylite-2000; Oxford Optronix). […]
To evaluate the selective uptake of MitoSNAP by mitochondria within cells, the effect of MitoSNAP on respiration by Jurkat cells, a T lymphocyte cell line that grows in suspension, was measured using an O2 electrode (FIG. 10). […] Then the effects of a further 30 min incubation with MitoSNAP, MitoNAP or the mitochondrial inhibitor myxathiazol on the steady-state extracellular pO2 was assessed by fluorescence quenching oximetry (FIG. 10e).

For `NCCN(CCN)/[N+]([O-])=N/O` [Deta-NONOate, 3,3-bis(aminoethyl)-1-hydroxy-2-oxo-1-tri azene, reference compound], the “NO concentration generated compared with 5 μM MitoSNAP” value (liver mitochondria [1]) was “five to ten-fold greater”, the “S-nitrosation less than that caused by 5 μM MitoSNAP” value (liver mitochondria [1]) was roughly 30 fold and the “S-nitrosation of mitochondrial proteins” value (liver mitochondria [1]; 5 min) was roughly 20 pmol SNO/mg protein.

`O=NSCCCC[P+](c1ccccc1)(c1ccccc1)c1ccccc1.[Br-]` [MitoSNO] was tested, and the “amount taken up into 3 mg protein” value (rat liver mitochondria; 5 μM MitoSNO, succinate) was 7.5 nmol, the “uptake by isolated mitochondria” value (rat liver mitochondria; energized with 10 mM succinate, reversed by FCCP) was “taken up by isolated mitochondria” and the concentration within mitochondria (rat liver mitochondria; mitochondrial volume ~0.5 μl/mg protein) was roughly 5 mM. The “amount taken up into the mitochondria, as part of the initial external concentration of 5 μM” value (rat liver mitochondria; rat liver mitochondria 1 mg protein/ml, 5 μM MitoSNO, succinate) was roughly 2.5 µM, the “effect on mitochondrial respiration” value (rat liver mitochondria; rat liver mitochondria, 5 μM MitoSNO) was “inhibited respiration by NO release” and the “concentration relative to the external medium” value (rat liver mitochondria; relative to 2.5 μM in the external medium) was 2000 fold.

For `CN(C)C(=O)/N=N/C(=O)N(C)C` [diamide, reference compound], the “protein-glutathione mixed disulfides (glutathionylation)” value (liver mitochondria [2]) was “extensive glutathionylation” and the “Cy3 labelling of S-nitrosated proteins” value [3] was “did not label proteins”.

For `CO/C(=C/C(N)=O)[C@H](C)[C@H](/C=C/c1csc(-c2csc([C@@H](C)/C=C/C=C/C(C)C)n2)n1)OC` [myxathiazol, reference compound], the “effect on steady-state extracellular pO2 during hypoxia” value (HeLa cells) was “increased extracellular O2”.
